Experimental data: patent publication US20090087417A1, “METHODS FOR PROMOTING DOPAMINERGIC NEURONAL DEVELOPMENT BY USING NG4A-SUBFAMILY AND WNT-LIGANDS” (priority 2002, published 2009)

Key:
Type in all cases: cell-based, rat
[1] = system: E14.5 ventral mesencephalic precursor cultures; assay: Number of TH+ neurons in E14.5 ventral mesencephalic precursor cultures; conditions: increasing concentrations of partially purified Wnt, 3 days
Procedure: (§1) Ventral mesencephala and cerebral cortices from embryos E13.5-14.5 obtained from timed-mated Sprague-Dawley rats were dissected, mechanically dissociated and plated at a final density of 1×10^5 cells/cm2 on poly-D-lysine coated 12- or 24-well plates in a defined, serum-free medium (N2, consisting of a 1:1 mixture of F12 and DMEM containing insulin (10 ng/ml), transferrin (100 μg/ml), putrescine (100 μM), progesterone (20 nM), selenium (30 nM), glucose (6 mg/ml), and bovine serum albumin (1 mg/ml)). Purified Type 1 astrocytes were obtained from mixed glial cultures derived from the VM or CTX of P1 rats according to a standard protocol (Wagner et al., 1999). After shaking and replating into 12-well plates, astrocytes were grown to confluency in 15% fetal bovine serum-containing media and changed to N2 medium, at which time freshly dissected VM or CTX cells were plated on top of the astrocytes at a density of 1×10^5 cells/cm2. All factors were added once, at the initiation of culture, with the exception of 5-bromodeoxyuridine (BrdU), which was added 4-6 hours prior to fixation. Cultures were maintained in a humidified 5% CO2, 95% air incubator at 37° C. and fixed after given time periods with 4% paraformaldehyde for 45 minutes prior to immunocytochemical analysis.
B1A fibroblast lines stably overexpressing hemagglutanin-tagged Wnt-1a, 3a, or 5a (Shimizu H., 1997) were grown in standard complete media (DMEM+10% FBS) supplemented with 100 ug/ml G-418. For collection of conditioned media, cells were replated at low density in complete media and allowed to reach 50-75% confluency, at which point cells were washed and media was replaced with serum-free N2 (with 10 μM sodium butyrate) for 24 hours. Conditioned media from sister flasks was then harvested, pooled as lots and stored at −80° C. for up to 2 months. When compared to fresh CM, no loss of activity was observed when using this collection and storage routine. T1A CM was harvested using a similar procedure, with the exception that media was collected after 3 days in vitro.
For concentration, individual lots of CM were thawed at room temperature, divided into 80 ml aliquots, loaded onto Centricon-Plus 80 columns (Millipore) and concentrated via centrifugation according to the manufacturers instructions. Following concentration, aliquots were re-pooled and frozen at −80 C after a sample was taken for determination of protein content and Western blot analysis. In brief, 20 ug of protein was loaded onto a 10% polyacrylamide mini-gel and run under denaturing conditions at 150 V for approximately 30 minutes. After dry electroblot transfer onto PVDF membranes (Hybond P, Amersham Pharmacia Biotech, Upsalla, Sweden) and pre-incubation for 30 minutes in a blocking buffer consisting of 3% bovine serum albumin in Tris-Buffered Saline with […] Triton-X 100 (TBST), blots were incubated with mouse anti-hemagglutinin (Babco) diluted 1:1000 in TBST overnight at 4 C. After washing, blots were incubated with alkaline phosphatase-coupled goat anti-mouse IgG (Santa Cruz) diluted 1:1000 in TBST for 1 hour at room temperature. Blots were visualized using the Amersham ECF reagent and blue fluorescence quantitated using a Molecular Devices Storm 840 phosphoimager.
(§2) B1A fibroblast lines were cotransfected with the mFz8CRD-IgG/pRK5 and the pIRES puro 2 (Clontech, BD Bioscience, Erembodegem, Belgium) plasmids, using Lipofectamine Plus reagent (Invitrogen, Lidingo, Sweden) according to the instruction of the manufacturer. Upon selection for puromycin resistance (1 μg/ml Sigma, Stockholm, Sweden), clones were isolated and expanded. A clone overexpressing Fz8CRD 700× (real time RT-PCR analysis) was identified. Harvesting and partial purification of Fz8CRD conditioned media were performed as described previously. In all the blocking experiments performed, the Fz8CRD and B1A control partial purified conditioned medias were used at a final concentration of 125-250 μg/ml. […]

[2] = system: E14.5 ventral mesencephalic (VM) cultures; assay: Proliferating clusters containing TH+ neurons in VM cultures; conditions: 10 units, 7 days in vitro
Procedure: as §1, with “All factors were added once, at the initiation of culture, with the exception of 5-bromodeoxyuridine (BrdU), which was added 4-6 hours prior to fixation. Cultures were maintained in a humidified 5% CO2, 95% air incubator at 37° C. and fixed after given time periods with 4% paraformaldehyde for 45 minutes prior to immunocytochemical analysis.” left out
Only clearly stained cells were counted as positive cells. […] Quantitative immunocytochemical data on individual cells represent means and standard errors of counts obtained by a blinded observer from 10-20 non-overlapping fields (cells) or in the entire well (clusters), in each of 3-4 wells per condition from 3-4 independent experiments, unless stated otherwise. […]

[3] = system: VM precursor cultures / Nurr1+ precursor cells; assay: BrdU incorporation (proliferation) in VM precursor cultures
Procedure: as §1
(§3) Fixed cultures were incubated with one of the following antibodies, diluted appropriately in phosphate-buffered saline (PBS) containing 1% bovine serum albumin and 0.3% Triton-X 100: mouse anti-BrdU, 1:50 (DAKO, Denmark), mouse anti-β-tubulin, Type III (TuJ1), 1:250 (Sigma), mouse anti-TH, 1:1000 (Incstar, USA), rabbit anti-TH, 1:250 (PelFreeze); rabbit anti-Nurr1, 1:2000 (gift from Dr. T. Perlmann, Sweden), rabbit anti-Nurr1, 1:1000 (Santa Cruz, USA) or mouse anti-Nurr1, 1:250 (BD Transduction Laboratories, USA), rabbit anti Adh2 1:4000 (gift from Dr. R. Lindahl, South Carolina). Incubations were either carried out at 4° C. overnight, or at room temperature for 1 hour. Both processes yielded similar results. After washing, cultures were incubated for 1-3 hr with appropriate secondary antibodies (biotinylated 1:500; CY2-, FITC-, or rhodamine-coupled horse-anti-mouse IgG 1:100; or goat-anti-rabbit IgG 1:100; all from Vector, USA), in the same dilution buffer. Brightfield immunostaining was visualized with the Vector Laboratory ABC immunoperoxidase kit, using either NovaRed (red), or AEC (red), SG or 3-3′ dimaminobenzidine tetrahydrochloride (DAB 0.5 mg/ml)/nickel chloride (1.6 mg/ml) (gray/black), or VIP (violet) substrates. Double-staining was performed by sequential single staining as described. The order of staining was only critical for BrdU-double labeling, in which case the BrdU procedure was always performed second. […] Photos were acquired with a Zeiss Axioplan 100M microscope and collected with a Hamamatsu camera C4742-95 (with the QED imaging software).
(§4) Only clearly stained cells were counted as positive cells. Spheres were considered positive if they contained one or more positive cell. Quantitative immunocytochemical data on individual cells represent means and standard errors of counts obtained by a blinded observer from 10-20 non-overlapping fields (cells) or in the entire well (clusters), in each of 3-4 wells per condition from 3-4 independent experiments, unless stated otherwise. For each variable, initial statistical comparisons were performed by a global ANOVA, with multiple factors of dose, time point, treatment and/or region; if significant interactions between treatment and any other variable existed, data were further divided into separate times, doses or regions. Fisher's protected least significant difference was used post hoc to identify specific points at which the treatments differed from controls (or each other) only when significant interactions between factor treatment and other variables occurred. Significance for all tests was assumed at the level of p<0.05. […]

[4] = system: VM cultures; assay: TuJ1+ neurons and proliferating clusters, proportion dopaminergic, in VM cultures
Procedure: as §1, §3, §4

[5] = system: ventral mesencephalic Nurr1+ neuronal precursors; assay: Conversion of VM Nurr1+ precursors into Nurr1+/TH+ dopaminergic neurons (double immunostaining); conditions: VM cultures; control approximately 50%
Procedure: as §1, §2
Only clearly stained cells were counted as positive cells. […]

[6] = system: E13.5 primary cultures from the cerebral cortex; assay: Induction of TH in Nurr1+ E13.5 cerebral cortex primary cultures; conditions: Wnt ligands or co-culture with P1 astrocytes
Procedure: as §1, §3
Only clearly stained cells were counted as positive cells. Spheres were considered positive if they contained one or more positive cell. Quantitative immunocytochemical data on individual cells represent means and standard errors of counts obtained by a blinded observer from 10-20 non-overlapping fields (cells) or in the entire well (clusters), in each of 3-4 wells per condition from 3-4 independent experiments, unless stated otherwise. […]

## Wnt-3a
[1]
  TH+ cell numbers: no effect at doses up to 100 units
[2]
  increase in the number of clusters containing one or more TH+ neurons: not
[3]; 1 day in vitro
  increase in Nurr1 and BrdU double positive precursor cells (mitosis in Nurr1+ population): 3 fold
[3]; 3 days in vitro
  BrdU incorporation in VM precursor cultures: increased
[4]; FIG. 3e
  proportion of VM clusters containing dopaminergic neurons: less than 10%
[4]; FIG. 3f
  total number of TuJ1+ neurons: did not increase
[4]; FIG. 3g
  proportion of TH+ (dopaminergic) neurons: decreased
[5]
  proportion of Nurr1 positive cells that expressed TH (Nurr1+/TH+): 30%
[6]
  proportion of Nurr1 positive cortical cells that expressed TH: virtually no Nurr1 positive cortical cells co-expressed TH
